Assay results as given in ChEMBL document CHEMBL1201862, “PubChem BioAssay data set” (2004).
Values belong to the molecule of their own block, whether it stands above or below them. The source made the active and inactive calls.

How the values were obtained:
Type in all cases: functional
[1] = target: ALK tyrosine kinase receptor (Homo sapiens, UniProt Q9UM73);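 also: ALK tested as one member of a kinase panel screen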
[2] = target: Cyclin-dependent kinase 19 (Homo sapiens, UniProt Q9BWU1); experiment: Navigating the Kinome. Panel member name: CDC2L6
[3] = target: Casein kinase I isoform alpha (Homo sapiens, UniProt P48729)
[4] = target: Dual specificity protein kinase CLK4 (Homo sapiens, UniProt Q9HAZ1)
[5] = target: DNA dC->dU-editing enzyme APOBEC-3A (Homo sapiens, UniProt P31941); experiment: SAR analysis of small molecule inhibitors of APOBEC3A DNA Deaminase via a fluorescence-based single-stranded DNA deaminase assay - Set 2.; conditions: read-out: IC50_Mean
[6] = target: DNA dC->dU-editing enzyme APOBEC-3G (Homo sapiens, UniProt Q9HC16); experiment: SAR analysis of small molecule inhibitors of APOBEC3G DNA Deaminase via a fluorescence-based single-stranded DNA deaminase assay - Set 2.; conditions: read-out: IC50_Mean
[7] = target: T1, High affinity choline transporter 1 (Homo sapiens, UniProt Q9GZV3); experiment: human choline transporter blockers, potency – cell-based, 5-point CRC, membrane potential dye, dose response (AID 504840)
T1 sequence (Q9GZV3 whole entry): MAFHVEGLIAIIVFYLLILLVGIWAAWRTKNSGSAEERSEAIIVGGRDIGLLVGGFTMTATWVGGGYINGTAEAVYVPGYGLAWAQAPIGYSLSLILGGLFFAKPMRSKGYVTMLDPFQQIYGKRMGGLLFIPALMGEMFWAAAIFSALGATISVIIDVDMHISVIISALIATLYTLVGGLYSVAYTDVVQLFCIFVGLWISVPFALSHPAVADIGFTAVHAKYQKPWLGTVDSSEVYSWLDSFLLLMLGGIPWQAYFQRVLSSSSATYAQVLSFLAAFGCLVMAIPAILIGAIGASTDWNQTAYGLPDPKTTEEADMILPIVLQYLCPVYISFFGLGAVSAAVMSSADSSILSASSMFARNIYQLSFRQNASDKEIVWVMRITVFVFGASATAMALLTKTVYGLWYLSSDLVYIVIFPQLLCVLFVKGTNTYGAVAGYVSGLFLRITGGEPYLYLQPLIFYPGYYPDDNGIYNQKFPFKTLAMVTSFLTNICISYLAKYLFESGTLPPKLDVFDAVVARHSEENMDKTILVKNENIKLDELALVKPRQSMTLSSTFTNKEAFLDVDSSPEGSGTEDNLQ

[8] = target: T1, High affinity choline transporter 1; experiment: human choline transporter blockers, potency – cell-based, 10-point CRC, membrane potential dye, dose response (AID 588401);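 also: membrane potential dye fluorescence of choline-evoked depolarization via CHT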
[9] = target: T2, Polyadenylate-binding protein 1 (Homo sapiens, UniProt P11940); experiment: MLLE binding blockers, Cy5 peptide tracer – biochemical, fluorescence polarization, Cy5-PAM2 peptide, secondary, miRNA deadenylation inhibitor project, dose response (AID 602260); conditions: read-out: IC50_Mean
[10] = target: T2, Polyadenylate-binding protein 1; experiment: MLLE domain peptide-binding blockers, IC50 – biochemical, fluorescence polarization, FITC-PAM2 peptide, dose response (AID 602259); conditions: read-out: IC50_Mean
[11] = target: Multidrug resistance protein CDR2 (Candida albicans (strain SC5314 / ATCC MYA-2876) (Yeast), UniProt P78595); experiment: inhibition of Nile Red efflux via Candida CDR2 – S. cerevisiae AD1-8u, singleplex, Cherry Pick1 hits, dose response (AID 588604)

T2 sequence (P11940 whole entry, the tested form may be a part): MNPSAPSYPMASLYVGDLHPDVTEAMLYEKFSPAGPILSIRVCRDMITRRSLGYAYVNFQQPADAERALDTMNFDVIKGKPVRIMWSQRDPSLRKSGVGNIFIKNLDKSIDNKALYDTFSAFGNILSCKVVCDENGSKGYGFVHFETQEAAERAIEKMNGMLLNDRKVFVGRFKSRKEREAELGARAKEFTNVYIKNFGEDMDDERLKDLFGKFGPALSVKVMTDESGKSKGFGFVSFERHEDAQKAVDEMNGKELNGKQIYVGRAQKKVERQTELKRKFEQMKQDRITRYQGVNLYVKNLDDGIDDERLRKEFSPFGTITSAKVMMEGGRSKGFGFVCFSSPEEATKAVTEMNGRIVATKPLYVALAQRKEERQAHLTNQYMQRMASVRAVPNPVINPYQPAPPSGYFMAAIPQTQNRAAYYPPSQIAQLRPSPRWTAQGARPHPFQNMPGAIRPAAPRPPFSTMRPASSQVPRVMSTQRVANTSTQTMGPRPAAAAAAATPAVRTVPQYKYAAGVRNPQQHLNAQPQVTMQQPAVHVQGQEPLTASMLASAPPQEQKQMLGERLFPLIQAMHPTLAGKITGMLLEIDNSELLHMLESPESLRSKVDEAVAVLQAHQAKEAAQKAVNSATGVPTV
DNA dC->dU-editing enzyme APOBEC-3A, sequence (P31941 whole entry): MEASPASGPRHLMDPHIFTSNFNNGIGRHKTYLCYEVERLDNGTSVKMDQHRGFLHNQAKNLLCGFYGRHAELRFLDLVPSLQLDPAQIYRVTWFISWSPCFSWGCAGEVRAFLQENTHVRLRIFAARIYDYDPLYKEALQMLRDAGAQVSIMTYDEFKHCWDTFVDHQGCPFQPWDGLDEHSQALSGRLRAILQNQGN
Dual specificity protein kinase CLK4, sequence (Q9HAZ1 whole entry): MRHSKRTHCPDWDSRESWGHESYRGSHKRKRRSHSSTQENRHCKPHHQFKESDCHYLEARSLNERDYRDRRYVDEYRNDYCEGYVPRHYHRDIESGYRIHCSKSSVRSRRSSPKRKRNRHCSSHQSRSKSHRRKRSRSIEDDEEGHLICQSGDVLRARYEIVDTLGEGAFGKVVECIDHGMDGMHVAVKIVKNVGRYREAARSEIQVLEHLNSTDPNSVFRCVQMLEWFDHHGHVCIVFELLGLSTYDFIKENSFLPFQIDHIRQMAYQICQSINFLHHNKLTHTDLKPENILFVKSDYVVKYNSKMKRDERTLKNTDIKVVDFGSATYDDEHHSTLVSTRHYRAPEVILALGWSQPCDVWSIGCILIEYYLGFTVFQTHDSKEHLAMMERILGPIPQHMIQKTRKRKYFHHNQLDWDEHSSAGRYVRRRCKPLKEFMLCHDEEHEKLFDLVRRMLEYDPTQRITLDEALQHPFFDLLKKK
ALK tyrosine kinase receptor, sequence (Q9UM73 whole entry): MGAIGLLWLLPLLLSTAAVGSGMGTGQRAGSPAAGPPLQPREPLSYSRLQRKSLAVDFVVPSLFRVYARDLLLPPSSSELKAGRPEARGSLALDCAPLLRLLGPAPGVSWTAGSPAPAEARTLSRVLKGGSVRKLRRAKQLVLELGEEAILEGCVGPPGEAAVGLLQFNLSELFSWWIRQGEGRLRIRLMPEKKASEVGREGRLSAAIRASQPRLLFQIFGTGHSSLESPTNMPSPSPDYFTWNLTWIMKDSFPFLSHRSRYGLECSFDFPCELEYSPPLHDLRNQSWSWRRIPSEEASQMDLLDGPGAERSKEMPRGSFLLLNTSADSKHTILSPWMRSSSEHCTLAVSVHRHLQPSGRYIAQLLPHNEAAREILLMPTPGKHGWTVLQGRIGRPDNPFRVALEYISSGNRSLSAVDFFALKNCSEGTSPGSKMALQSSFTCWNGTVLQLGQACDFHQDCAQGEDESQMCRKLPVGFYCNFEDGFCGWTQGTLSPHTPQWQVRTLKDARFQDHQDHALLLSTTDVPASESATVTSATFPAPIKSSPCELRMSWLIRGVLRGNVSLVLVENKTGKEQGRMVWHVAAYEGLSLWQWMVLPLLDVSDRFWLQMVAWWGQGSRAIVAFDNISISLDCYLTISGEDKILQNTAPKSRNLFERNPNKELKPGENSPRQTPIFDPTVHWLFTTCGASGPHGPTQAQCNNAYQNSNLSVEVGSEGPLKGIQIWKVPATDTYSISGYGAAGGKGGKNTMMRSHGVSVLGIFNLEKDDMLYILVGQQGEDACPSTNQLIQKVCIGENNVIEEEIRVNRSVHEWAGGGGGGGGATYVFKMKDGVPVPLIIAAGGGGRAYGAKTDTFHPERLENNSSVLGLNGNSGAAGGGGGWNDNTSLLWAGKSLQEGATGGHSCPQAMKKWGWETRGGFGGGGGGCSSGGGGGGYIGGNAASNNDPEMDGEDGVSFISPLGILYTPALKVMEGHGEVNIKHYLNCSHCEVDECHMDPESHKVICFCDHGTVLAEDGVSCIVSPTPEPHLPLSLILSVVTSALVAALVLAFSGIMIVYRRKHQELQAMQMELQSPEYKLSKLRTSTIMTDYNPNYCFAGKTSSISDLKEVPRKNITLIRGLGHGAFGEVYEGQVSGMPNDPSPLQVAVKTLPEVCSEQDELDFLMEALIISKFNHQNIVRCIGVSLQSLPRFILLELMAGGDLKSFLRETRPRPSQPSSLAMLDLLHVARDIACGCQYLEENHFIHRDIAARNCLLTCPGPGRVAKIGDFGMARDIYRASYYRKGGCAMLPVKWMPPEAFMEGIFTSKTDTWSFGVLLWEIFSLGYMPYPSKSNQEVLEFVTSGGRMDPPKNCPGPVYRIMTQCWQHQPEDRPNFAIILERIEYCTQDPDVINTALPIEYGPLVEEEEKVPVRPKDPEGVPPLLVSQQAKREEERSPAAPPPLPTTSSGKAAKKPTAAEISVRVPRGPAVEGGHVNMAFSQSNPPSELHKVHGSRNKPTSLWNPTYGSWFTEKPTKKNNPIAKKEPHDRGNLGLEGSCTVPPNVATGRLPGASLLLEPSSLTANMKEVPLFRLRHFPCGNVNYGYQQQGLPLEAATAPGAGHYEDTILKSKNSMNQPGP
Cyclin-dependent kinase 19, sequence (Q9BWU1 whole entry, canonical isoform): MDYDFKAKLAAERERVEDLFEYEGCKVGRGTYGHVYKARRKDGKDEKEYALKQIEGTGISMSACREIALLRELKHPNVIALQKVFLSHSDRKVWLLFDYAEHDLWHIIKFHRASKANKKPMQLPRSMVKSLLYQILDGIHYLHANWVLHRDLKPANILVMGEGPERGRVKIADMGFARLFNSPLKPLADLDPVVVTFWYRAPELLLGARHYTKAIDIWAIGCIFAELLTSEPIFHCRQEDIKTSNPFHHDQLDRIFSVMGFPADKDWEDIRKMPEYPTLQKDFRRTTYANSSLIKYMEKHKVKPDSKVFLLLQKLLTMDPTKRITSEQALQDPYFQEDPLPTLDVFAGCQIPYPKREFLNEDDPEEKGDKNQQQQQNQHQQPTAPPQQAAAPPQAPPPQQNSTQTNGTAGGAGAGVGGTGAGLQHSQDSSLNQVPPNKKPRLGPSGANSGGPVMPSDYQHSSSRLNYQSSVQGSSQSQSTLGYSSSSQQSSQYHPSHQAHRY
Casein kinase I isoform alpha, sequence (P48729 whole entry, canonical isoform): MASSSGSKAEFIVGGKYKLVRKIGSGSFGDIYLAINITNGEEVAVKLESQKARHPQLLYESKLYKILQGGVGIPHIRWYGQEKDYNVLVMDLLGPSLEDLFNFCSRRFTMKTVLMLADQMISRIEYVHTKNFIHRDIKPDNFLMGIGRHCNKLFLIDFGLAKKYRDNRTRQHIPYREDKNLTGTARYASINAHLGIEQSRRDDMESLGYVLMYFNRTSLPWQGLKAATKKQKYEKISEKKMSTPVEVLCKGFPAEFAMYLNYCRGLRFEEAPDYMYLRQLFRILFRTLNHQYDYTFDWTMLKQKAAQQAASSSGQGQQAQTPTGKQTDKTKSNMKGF
DNA dC->dU-editing enzyme APOBEC-3G, sequence (Q9HC16 whole entry): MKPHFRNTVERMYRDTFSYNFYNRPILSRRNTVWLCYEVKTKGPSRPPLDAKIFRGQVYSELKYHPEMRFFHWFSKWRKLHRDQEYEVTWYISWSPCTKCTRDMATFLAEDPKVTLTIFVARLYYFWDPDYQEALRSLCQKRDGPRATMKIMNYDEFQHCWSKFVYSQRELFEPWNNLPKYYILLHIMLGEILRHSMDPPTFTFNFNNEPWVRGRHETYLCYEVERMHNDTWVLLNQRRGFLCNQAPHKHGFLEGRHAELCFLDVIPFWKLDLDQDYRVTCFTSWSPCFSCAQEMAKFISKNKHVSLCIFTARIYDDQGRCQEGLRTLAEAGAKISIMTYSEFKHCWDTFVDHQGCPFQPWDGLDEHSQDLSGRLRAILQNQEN

Ki [1]: 1.58 µM (active)
Ki [2]: 2 µM (active)
Structure (SMILES): Cn1cc(Nc2ncc(Cl)c(Nc3ccccc3)n2)cn1

Ki [3]: 20 µM (active)
Ki [4]: 39.8 µM (active)
Structure (SMILES): Nc1nnc(-c2ccccc2)c(N)n1

Structure (SMILES): CCc1nc2sc3c(c2c2nnc(S)n12)CCC(C)C3 (stereo unspecified)
IC50 [5]: > 99 µM (inactive)
IC50 [6]: > 99 µM (inactive)

IC50 [7]: 3.84 µM (active)
IC50 [8]: 1.58 µM (active)
IC50 [9]: > 66 µM (inactive)
IC50 [10]: > 66 µM (inactive)
Structure (SMILES): S=C(NCc1ccccn1)Nc1ccc(Br)cc1Cl

Structure (SMILES): COc1ccc(-c2nc3ccccc3c(=O)n2CCOc2ccc(C)cc2C)cc1
EC50 [11]: 15.2 µM (active)
